Measured values as given in article PMC8819291, “Adaptively evolved human oral actinomyces‐sourced defensins show therapeutic potential” (EMBO Molecular Medicine, 2021).
Where a SMILES comes first, the peptide text is derived from it.

How the values were obtained:
[1] = test system: fresh erythrocytes from the female ICR mice; assay: Hemolysis assay; format: cell-based, Mus musculus; details: 25 μM
Protocol: Hemolytic activity of peptides against fresh erythrocytes from the female ICR mice (Mus musculus) (25 g, 6 weeks of age) was assayed according to the standard method (Zhu et al, [2012]). Peptides were diluted with 0.9% NaCl to the indicated concentration. The percentage of hemolysis is determined as (A pep–A blank)/(A tot–A blank) × 100, in which “A” represents absorbance measured at 570 nm. A blank and A pep were evaluated in the absence or presence of peptides. One hundred percent hemolysis (A tot) was obtained in the presence of 1% Triton X‐100.

[2] = test system: BM cells (Bacillus megaterium); assay: Scanning electron microscope observation of cell deformation; format: cell-based; details: 10 × C L, 37°C, 90 min
Protocol: After centrifugation, bacterial pellets were fixed with 2.5% glutaraldehyde for 1 h, followed by washing three times with PBS buffer (pH 7.3). Dehydration was carried out with a series of graded ethanol solutions. Cells were then dried by BAL‐TEC CPD‐030 critical point dryer (Bal‐Tec AG, Balzers, Liechtenstein) before being mounted on carbon tape and sputtered with a gold coating (BAL‐TEC SCD005). Images were visualized in FEI QUANTA 450.

MRSA P1374 = assay: Cytoplasmic accumulation of UMP; format: cell-based, Staphylococcus aureus; details: 20 × C L, 30 min; RP-HPLC, UV 260 nm
Protocol: To analyze the cytoplasmic nucleotide pool, we carried out the cytoplasmic UMP accumulation experiment according to the literature (Brötz et al, [1997]) with some modifications. MRSA P1374 cells were grown in 40‐ml broth medium at 37°C to an OD600 of 0.5. The culture was supplemented with 130 μg/ml chloramphenicol. […] After 30 min of incubation, UMP was extracted from the harvested cells by stirring them into boiling water. The suspension was then centrifuged (43,000 g, 60 min) at 4°C and the supernatant was lyophilized and dissolved in 400 μl of 50 mM ammonium acetate (pH 5.2) and adjusted to pH 2.0 with acetic acid. After acidification, the supernatant was fractionated by RP‐HPLC on Hypersil ODS (250 × 4.6 mm; Thermo Scientific) and UMP was eluted from the column with a linear gradient from 0 to 40% methanol in 50 mM NH4Ac (pH 5.2) within 40 min with a flow rate of 1 ml/min. UV absorbance was monitored at 260 nm. UMP was identified by ultraperformance liquid chromatography–high resolution mass spectrometry (UPLC‐HRMS) and MALDI‐TOF. Both methods yielded consistent results.

[3] = Circular dichroism spectroscopy with UMP; format: binding; details: 50 mM NH4OAc, room temperature
Protocol: The spectra were measured at room temperature from 300 to 200 nm by using a quartz cell of 1.0 mm thickness. Data were collected at 1‐nm intervals with a scan rate of 2 nm/s.

[4] = Bioaffinity ESI-MS with UMP; format: binding, Staphylococcus aureus; details: 25 mM ammonium acetate (pH5.2)
Protocol: All components for interactions were dissolved in 25 mM ammonium acetate (pH5.2). Electrospray spectra were recorded with Waters SynaptG2‐Si mass spectrometer (Waters, Manchester, UK) and measurements were performed with positive ESI in resolution mode. Ions were scanned in a mass range of 500–2,000 m/z with the following conditions: the capillary voltage at 1,500 V; the cone voltage at 40 V; the source block temperature at 30°C. Spectra were recorded and processed by the software Masslynx4.1 (Waters, Manchester, UK).

HL‐60 = assay: Cytotoxicity assay (CCK-8); format: cell-based, human; details: 72 h
Protocol: Cells were cultured at 37°C in 5% CO2: 95% air incubator in Minimum Essential Medium (MEM) supplemented with 10% (v/v) fetal bovine serum (FBS). Cells were seeded at a density of 7 × 10^3 cells per well in 96‐well plates and incubated for 24 h. Media were then replaced with 200 μl of media containing various concentrations of peptides. The cells were incubated for 72 h and cytotoxicity was assessed with CCK‐8 Kits (Dojindo Molecular Technologies, Tokyo, Japan). Absorbance was detected at 450 nm with the TECAN Infinite M200 microplate reader (Tecan, Durham, USA).

A549 cells = assay: Peptide-induced IL-8 release (ELISA); format: cell-based, human; details: 24 h
Protocol: (§1) A549 and HL‐60 cells were purchased from the Cell Resource Center of the Chinese Academy of Medical Sciences (Beijing, China). They were tested for mycoplasma contamination with the Mycoplasma Detection Kit (Solarbio, China) and only negative cultures were used in our experiments. The cells were cultured in complete Dulbecco’s Modified Eagle Medium (DMEM) supplemented with 10% fetal bovine serum (FBS), penicillin (100 units/ml), and streptomycin ([…]) at 37°C in 5% CO2. The culture medium was changed every 2 days. Cells were passaged every 4–5 days with 0.25% trypsin (Gibco, USA). For enzyme‐linked immunosorbent assay (ELISA) (Hara et al, [2008]), A549 or HL‐60 cells were seeded in six‐well plates at a density of 1 × 10^5 cells/well and were incubated at 37°C in 5% CO2 overnight. Medium was aspirated and replaced with fresh complete DMEM supplemented with 10% FBS or serum‐free medium, both containing different concentrations of polypeptides for 24 h. Then, the supernatants were harvested for quantification of the IL‐8 amount in A549 by the Human CXCL8/IL‐8 Quantikine ELISA Kit (R&D Systems Inc., Minneapolis, MN, USA) and the MCP‐1 amount in HL‐60 by the Human MCP‐1 ELISA Kit (Boster Biological Technology Co., Ltd, Wuhan, China) as per the manufactures’ instructions.

HL‐60 cells = assay: Peptide-induced MCP-1 release (ELISA); format: cell-based, human; details: 24 h
Protocol: as §1

SP D39 = assay: Mouse lung infection model
Protocol: To this end, ICR female mice (30 g each mouse; 9–10 weeks of age) were anesthetized with 1.25% 2,2,2‐Tribromoethanol (Avertin) (Macklin, Shanghai, China) and hung by their front teeth on a steel wire. Then, they were inoculated intranasally with 10–20 µl bacterial suspension of SP D39 of fresh overnight culture (1.5 × 10^6 CFU per mouse) and then were removed from the wire to their cages. A control group of untreated mice was included. […] Mice were treated with penicillin as a positive control. At 48 h post‐infection, the mice were sacrificed and lungs removed and homogenized in 0.9% saline. Colony counts from lung homogenates were determined and the total number of colonies/lungs per mouse was calculated. Schematic representation is provided in Appendix Fig S16B.

[5] = test system: Streptococcus sanguinis ATCC 1.2497; assay: Inhibition-zone-based synergy assay; format: cell-based; details: 0.05 nmol/well, without AMSIN
[6] = test system: Streptococcus salivarius ATCC 1.2498; assay: Inhibition-zone-based synergy assay; format: cell-based; details: 0.05 nmol/well, without AMSIN
[7] = FBS-containing medium, 25 μg/mL, replicate 1
[8] = FBS-containing medium, 25 μg/mL, replicate 2
[9] = FBS-containing medium, 25 μg/mL, replicate 3
[10] = FBS-containing medium, 50 μg/mL, replicate 1
[11] = FBS-containing medium, 50 μg/mL, replicate 2
[12] = FBS-containing medium, 50 μg/mL, replicate 3
[13] = FBS-containing medium, 100 μg/mL, replicate 1
[14] = FBS-containing medium, 100 μg/mL, replicate 2
[15] = FBS-containing medium, 100 μg/mL, replicate 3
[16] = Serum-Free medium, 25 μg/mL, replicate 1
[17] = Serum-Free medium, 25 μg/mL, replicate 2
[18] = Serum-Free medium, 25 μg/mL, replicate 3
[19] = Serum-Free medium, 50 μg/mL, replicate 1
[20] = Serum-Free medium, 50 μg/mL, replicate 2
[21] = Serum-Free medium, 50 μg/mL, replicate 3
[22] = Serum-Free medium, 100 μg/mL, replicate 1
[23] = Serum-Free medium, 100 μg/mL, replicate 2
[24] = Serum-Free medium, 100 μg/mL, replicate 3

Molecule: CC[C@H](C)[C@H](NC(=O)[C@H](CCCCN)NC(=O)[C@@H](NC(=O)[C@H](C)NC(=O)[C@H](CC(C)C)NC(=O)[C@H](CCCCN)NC(=O)[C@H](Cc1ccccc1)NC(=O)[C@H](CC(C)C)NC(=O)[C@H](Cc1cnc[nH]1)NC(=O)CNC(=O)[C@H](Cc1ccccc1)NC(=O)[C@@H](N)Cc1ccccc1)[C@@H](C)O)C(=O)N[C@H](C(=O)N1CCC[C@H]1C(=O)N[C@@H](CO)C(=O)N[C@@H](CC(C)C)C(=O)N[C@@H](Cc1ccccc1)C(=O)N[C@@H](CCC(N)=O)C(=O)O)[C@@H](C)CC [Meucin-18, reference compound] (H-FFGHLFKLATKIIPSLFQ-OH)
- Hemolysis (%) ([1]; technical replicate 1): 91.54%
- Hemolysis (%) ([1]; technical replicate 2): 95.84%
- Hemolysis (%) ([1]; technical replicate 3): 92.43%

Molecule: CN[C@H](CC(C)C)C(=O)N[C@H]1C(=O)N[C@@H](CC(N)=O)C(=O)N[C@H]2C(=O)N[C@H]3C(=O)N[C@H](C(=O)N[C@H](C(=O)O)c4cc(O)cc(O)c4-c4cc3ccc4O)[C@H](O)c3ccc(c(Cl)c3)Oc3cc2cc(c3O[C@@H]2O[C@H](CO)[C@@H](O)[C@H](O)[C@H]2O[C@H]2C[C@](C)(N)[C@H](O)[C@H](C)O2)Oc2ccc(cc2Cl)[C@H]1O [vancomycin, reference compound]
- Cell shape by scanning electron microscopy [2]: deformation of the cell shape
- Cytoplasmic accumulation of UMP (MRSA P1374): accumulated
- Complex with UMP by CD absorption signatures [3]: a complex was formed
- Non-covalent complex with UMP by ESI-MS [4]: complex formation

Molecule: LL-37: the human AMP with immunomodulatory properties, chemically synthesized, positive control [reference compound]
- Cellular variability of HL-60 (%) (HL‐60; 25 μg/mL, replicate 1): 95%
- Cellular variability of HL-60 (%) (HL‐60; 25 μg/mL, replicate 2): 96%
- Cellular variability of HL-60 (%) (HL‐60; 25 μg/mL, replicate 3): 103%
- Cellular variability of HL-60 (%) (HL‐60; 50 μg/mL, replicate 1): 57%
- Cellular variability of HL-60 (%) (HL‐60; 50 μg/mL, replicate 2): 56%
- Cellular variability of HL-60 (%) (HL‐60; 50 μg/mL, replicate 3): 64%
- Cellular variability of HL-60 (%) (HL‐60; 100 μg/mL, replicate 1): 25%
- Cellular variability of HL-60 (%) (HL‐60; 100 μg/mL, replicate 2): 25%
- Cellular variability of HL-60 (%) (HL‐60; 100 μg/mL, replicate 3): 26%
- IL-8 (A549 cells; [7]): 172 pg/mL
- IL-8 (A549 cells; [8]): 166 pg/mL
- IL-8 (A549 cells; [9]): 172 pg/mL
- IL-8 (A549 cells; [10]): 156 pg/mL
- IL-8 (A549 cells; [11]): 129 pg/mL
- IL-8 (A549 cells; [12]): 155 pg/mL
- IL-8 (A549 cells; [13]): 173 pg/mL
- IL-8 (A549 cells; [14]): 195 pg/mL
- IL-8 (A549 cells; [15]): 192 pg/mL
- IL-8 (A549 cells; [16]): 57 pg/mL
- IL-8 (A549 cells; [17]): 41 pg/mL
- IL-8 (A549 cells; [18]): 47 pg/mL
- IL-8 (A549 cells; [19]): 66 pg/mL
- IL-8 (A549 cells; [20]): 57 pg/mL
- IL-8 (A549 cells; [21]): 78 pg/mL
- IL-8 (A549 cells; [22]): 133 pg/mL
- IL-8 (A549 cells; [23]): 122 pg/mL
- IL-8 (A549 cells; [24]): 116 pg/mL
- MCP-1 (HL‐60 cells; [7]): 486 pg/mL
- MCP-1 (HL‐60 cells; [8]): 414 pg/mL
- MCP-1 (HL‐60 cells; [9]): 465 pg/mL
- MCP-1 (HL‐60 cells; [10]): 538 pg/mL
- MCP-1 (HL‐60 cells; [11]): 514 pg/mL
- MCP-1 (HL‐60 cells; [12]): 517 pg/mL
- MCP-1 (HL‐60 cells; [13]): 545 pg/mL
- MCP-1 (HL‐60 cells; [14]): 571 pg/mL
- MCP-1 (HL‐60 cells; [15]): 524 pg/mL
- MCP-1 (HL‐60 cells; [16]): 431 pg/mL
- MCP-1 (HL‐60 cells; [17]): 519 pg/mL
- MCP-1 (HL‐60 cells; [18]): 410 pg/mL
- MCP-1 (HL‐60 cells; [19]): 583 pg/mL
- MCP-1 (HL‐60 cells; [20]): 543 pg/mL
- MCP-1 (HL‐60 cells; [21]): 562 pg/mL
- MCP-1 (HL‐60 cells; [22]): 459 pg/mL
- MCP-1 (HL‐60 cells; [23]): 565 pg/mL
- MCP-1 (HL‐60 cells; [24]): 438 pg/mL

Molecule: drosomycin: a specific antifungal defensin (DCLSGRYKGPCAVWDNETCRRVCKEEGRSSGHCSPSLKCWCEGC; UniProt P41964 27-70, looked up)
- Non-covalent complex with UMP by ESI-MS [4]: not

Molecule: penicillin [reference compound]
- Log10 (CFU per lung) (SP D39; 8.35 mg/kg i.m. 24 h after intranasal SP D39, lungs at 48 h post‐infection, animal 1): 3.6 Log10 (CFU per lung)
- Log10 (CFU per lung) (SP D39; 8.35 mg/kg i.m., animal 2): 4.3 Log10 (CFU per lung)
- Log10 (CFU per lung) (SP D39; 8.35 mg/kg i.m., animal 3): 3.23 Log10 (CFU per lung)
- Log10 (CFU per lung) (SP D39; 8.35 mg/kg i.m., animal 4): 3.28 Log10 (CFU per lung)
- Log10 (CFU per lung) (SP D39; 8.35 mg/kg i.m., animal 5): 3.3 Log10 (CFU per lung)
- Log10 (CFU per lung) (SP D39; 16.7 mg/kg i.m., animal 1): 1.3 Log10 (CFU per lung)
- Log10 (CFU per lung) (SP D39; 16.7 mg/kg i.m., animal 2): 1.48 Log10 (CFU per lung)
- Log10 (CFU per lung) (SP D39; 16.7 mg/kg i.m., animal 3): 1.3 Log10 (CFU per lung)
- Log10 (CFU per lung) (SP D39; 16.7 mg/kg i.m., animal 4): 4.2 Log10 (CFU per lung)
- Log10 (CFU per lung) (SP D39; 16.7 mg/kg i.m., animal 5): 4.68 Log10 (CFU per lung)
- Log10 (CFU per lung) (SP D39; 30 mg/kg i.m., animal 1): 3 Log10 (CFU per lung)
- Log10 (CFU per lung) (SP D39; 30 mg/kg i.m., animal 2): 1 Log10 (CFU per lung)
- Log10 (CFU per lung) (SP D39; 30 mg/kg i.m., animal 3): 2.63 Log10 (CFU per lung)
- Log10 (CFU per lung) (SP D39; 30 mg/kg i.m., animal 4): 1 Log10 (CFU per lung)
- Log10 (CFU per lung) (SP D39; 30 mg/kg i.m., animal 5): 1 Log10 (CFU per lung)

B1: hLZc: lysozyme C isolated from human saliva (protein)
chain: KVFERCELARTLKRLGMDGYRGISLANWMCLAKWESGYNTRATNYNAGDRSTDYGIFQINSRYWCNDGKTPGAVNACHLSCSALLQDNIADAVACAKRVVRDPQGIRAWVAWRNRCQNRDVRQYVQGCGV
- Inhibition zone of the factor alone [5]: no visible inhibition zones
- Inhibition zone of the factor alone [6]: no visible inhibition zones
